Measured values from patent publication US20230159509A1 (Amathus Therapeutics, Inc., priority 2020, published 2023).

How the values were obtained:
[1] = biological target: T1, TRAP1 enzyme (Homo sapiens, UniProt Q12931); assay: ADP Glo assay of TRAP1 ATPase activity; assay type: biochemical
T1 construct: 150 nM Trap1 enzyme was incubated with various concentrations of the test compound
T1 sequence (Q12931 60-704): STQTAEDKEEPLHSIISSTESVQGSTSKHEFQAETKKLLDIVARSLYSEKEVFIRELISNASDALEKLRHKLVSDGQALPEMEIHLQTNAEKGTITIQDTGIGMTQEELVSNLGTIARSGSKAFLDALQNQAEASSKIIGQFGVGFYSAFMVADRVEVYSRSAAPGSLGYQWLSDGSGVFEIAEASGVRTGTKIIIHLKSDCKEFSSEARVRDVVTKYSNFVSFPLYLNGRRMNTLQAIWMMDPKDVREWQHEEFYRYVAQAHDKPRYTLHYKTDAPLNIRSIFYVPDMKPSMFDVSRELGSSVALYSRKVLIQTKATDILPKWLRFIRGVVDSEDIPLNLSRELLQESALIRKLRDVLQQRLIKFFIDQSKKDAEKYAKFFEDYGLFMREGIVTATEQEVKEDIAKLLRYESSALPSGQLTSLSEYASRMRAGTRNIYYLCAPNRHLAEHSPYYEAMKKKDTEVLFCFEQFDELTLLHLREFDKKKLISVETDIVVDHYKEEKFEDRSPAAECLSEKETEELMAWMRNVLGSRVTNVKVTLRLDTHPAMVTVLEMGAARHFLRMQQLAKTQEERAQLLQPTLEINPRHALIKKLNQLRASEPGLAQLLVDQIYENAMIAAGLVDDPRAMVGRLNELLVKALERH
How it was run: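 ADP-Glo luminescence quantifying ADP from 150 nM TRAP1 preincubated 30 min at 37° C with compound (0.79–100 μM), then 20 μM ATP for 60 min at 37° C. Buffer: 25 mM Pipes pH 7.5, 40 mM KCl, 0.05 mM MgCl2, EGTA, BSA, detergents. ADP from ATP/ADP standard curve; Emax and EC50 from sigmoidal fit.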

[2] = system: human α-synuclein-WT; assay: α-synuclein expression and aggregation assay in differentiated neuronal ReNcell VM cells; assay type: cell-based
Method: Assay measuring α-synuclein expression and aggregation in differentiated neuronal ReNcell VM cells transduced with human α-synuclein-WT were used to assess the α-synuclein modulation characteristics of compounds. To this purpose, ReNcell VM cells in growth medium (containing EGF and bFGF) were seeded in 96-well laminin-coated plates.
Three (3) days post-seeding, on DO, the cells were refreshed with differentiation medium (devoid of EGF and bFGF, supplemented with cAMP and GDNF) and transduced with α-synuclein-encoding adenoviruses. On D1, after overnight transduction, the adenoviral medium was removed and test compound CRCs diluted in differentiation medium were added to the cells in biological duplicates (i.e. in wells located on separate assay plates processed on the same day). The assay includes a compound refreshment on D4. On each plate tested, up to six (6) vehicle control samples (0.1% DMSO) and up to six (6) positive control samples (10 μM KU 0063794) were included. Furthermore, each assay run includes an 8-point CRC of the reference compound KU 0063794. After six (6) days of compound treatment (on D7), the cells were fixed using 3.7% formaldehyde.
Assay readouts were aggregate-selective (MJFR-14) and α/β-synuclein (Syn205) immunoreactivity, quantified using high-content analysis with algorithms for Density×Area (D×A). Co-staining of cell nuclei with DAPI is performed to quantify cell number as a measure of potential toxicity. Synuclein immunoreactivity (D×A) was normalized for the number of nuclei (nuc) per imaged well (D×A/nuc). Compound performance was evaluated by efficacy (percentage inhibition (PIN) relative to positive control) and potency (pIC50, when calculable) determination.
Assay quality was confirmed using the following pre-set criteria: Toxicity: ≤25% nuclei loss compared to average DMSO control, Coefficient of variation (CV): ≤20% CV for DMSO control, Assay window: ≥2.0 for Syn205, and Assay window: ≥1.5 for MJF-14.

EC50 ([1]; concentration for half maximal activation, read-out: ADP GLO DRC: GeoMean EC50): < 10 µM
Emax ([1]; maximal percent activation, read-out: ADP GLO DRC: Mean Emax): 200 to 300%
MJFR-14 Potency (pIC50) ([2]; aggregate-selective (MJFR-14) immunoreactivity, D×A/nuc): 5.6
Syn205 Potency (pIC50) ([2]; α/β-synuclein (Syn205) immunoreactivity, D×A/nuc): 5.6
Compound: COc1ncc(NC(=O)c2csc(-c3ccccc3)n2)cc1S(=O)(=O)Nc1c(C)cccc1C [compound 1178]
MJFR-14 Max efficacy (PE) ([2]; MJFR-14): 36.2
MJFR-14 Max efficacy (PIN) ([2]; MJFR-14, percentage inhibition relative to positive control (10 μM KU 0063794)): 52.1
Syn205 Max efficacy (PE) ([2]; Syn205): 44.9
Syn205 Max efficacy (PIN) ([2]; Syn205, percentage inhibition relative to positive control (10 μM KU 0063794)): 64.7
